One assay has as its target mushroom tyrosinase (Agaricus bisporus, UniProt C7FF04). Put plainly: In vitro mushroom tyrosinase inhibition (L-DOPA substrate). In kind it is biochemical. The settings on record: 475 nm, read-out: IC50 (μM) ± SD, inhibitory tyrosinase activity. The procedure: The mushroom tyrosinase inhibitory activity was determined according to previous described method. Briefly, 168 μl of phosphate buffer (0.1 M, pH 6.8), 10 μl of mushroom tyrosinase (0.5 mg/ml, Sigma Chemical, St. Louis, MO) and 2 μl of the inhibitor solution were placed in the wells of a 96-well micro plate. After pre-incubation for 20 min at 37 °C, 20 μl of 2.0 mg/ml L-DOPA (3,4-dihydroxyphenylalanine, Sigma Chemical, St. Louis, MO) was added and the enzyme activity was measured at 475 nm every 60 s for 180 s in a Microplate Reader (Bio-Rad Laboratories, Inc., Hercules, CA). Kojic acid and phosphate buffer were respectively used as positive and negative control. The extent of inhibition by the test compounds was expressed as the percentage of concentration necessary to achieve 50% inhibition (IC50). The percentage of inhibition was calculated as follows: inhibitory rate (%) = [Ac − At)/Ac] × 100. Ac is the absorbance of the negative control and At is the absorbance of the test compound. Each concentration was analysed in three independent experiments run in triplicate. The IC50 values were determined by the data analysis software GraphPad Prism 8 (La Jolla, CA).
The tyrosinase inhibition measurements of compounds 6a–6x were carried out using L-DOPA as substrate. Kojic acid was selected as a positive control compound. […]. […] Moreover, inhibitory activity of compound with hydroxyl group at papa position is better than the inhibitory activity of compound with hydroxyl group at meta position, and inhibitory activity of compound with hydroxyl group at meta position is better than the inhibitory activity of compound with hydroxyl group at ortho position. […]. […] In addition, with the increase of atomic radius, the inhibitory activity gradually decreases. (3) The inhibitory activity of alkoxy substituted compound is better than that of alkyl substituted compound. (4) Comparing the tyrosinase inhibitory activity of compounds with halogen atom (6b–6d, 6q–6s) and compounds with methyl or methoxy (6e–6f, 6t–6u), when the hydrogen (R^2) was replaced by the methyl (R^2), the inhibitory activity was decreased.

Assay [1] is described as follows: DPPH free radical scavenging activity assay. The settings on record: DPPH 150 μM, 30 min, 517 nm; read-out: DPPH/IC50 (μM) ± SD. The procedure: The anti-oxidation effect on DPPH radical was determined by a slightly modified version of a previously described DPPH radical scavenging assay. Reaction mixtures consisted of 100 μl of DPPH (150 μM), 20 μl of increasing concentration of test compounds and the volume was adjusted to 200 μl in each well with DMSO. The assay solution was then incubated at room temperature (25 °C) for 30 min in the dark. After the incubation, absorbance at 517 nm was measured by using UV-2600 spectrophotometer. The experiments were undertaken in triplicate. DMSO was used as a control. Ascorbic acid was used as antioxidant standard for comparison of the activity. The calculation of DPPH radical scavenging activity was followed by this formula: DPPH radical scavenging activity %=absorbance of standard−absorbance of sample/Absorbance of standard×100
In general terms: Loss of DPPH colour is used to gauge radical scavenging.

Assay [2] can be described thus: ABTS radical cation scavenging activity assay. Conditions: 734 nm; read-out: ABTS+/IC50 (μM) ± SD. How it is done:
ABTS free radical scavenging activity was performed according to the procedure described by Zhang et al.[40] Test solution of ABTS decolourisation assay was prepared by mixing 2.45 mM potassium persulfate and 7 mM ABTS at 8:12 volume/volume ratio. The working solution was kept in the dark at room temperature for 12–18 h. Before ABTS radical scavenging test, the ABTS test solution was diluted with DMSO to absorbance of 0.7 (±0.02) at 734 nm. One millilitre of diluted ABTS test solution was added to 10 μl of DMSO or test sample. After initial mixing, the working solution was kept in the dark at room temperature for 2–6 min, and the absorbance was measured at 734 nm. This test was carried out in triplicate. DMSO was used as a control. Ascorbic acid was used as antioxidant standard for comparison of the activity. The absorbance of test samples was calculated by the following formula. ABTS scavenging ability %=absorbance of standard−absorbance of sample/absorbance of standard×100.

mushroom tyrosinase, sequence (C7FF04 1-392): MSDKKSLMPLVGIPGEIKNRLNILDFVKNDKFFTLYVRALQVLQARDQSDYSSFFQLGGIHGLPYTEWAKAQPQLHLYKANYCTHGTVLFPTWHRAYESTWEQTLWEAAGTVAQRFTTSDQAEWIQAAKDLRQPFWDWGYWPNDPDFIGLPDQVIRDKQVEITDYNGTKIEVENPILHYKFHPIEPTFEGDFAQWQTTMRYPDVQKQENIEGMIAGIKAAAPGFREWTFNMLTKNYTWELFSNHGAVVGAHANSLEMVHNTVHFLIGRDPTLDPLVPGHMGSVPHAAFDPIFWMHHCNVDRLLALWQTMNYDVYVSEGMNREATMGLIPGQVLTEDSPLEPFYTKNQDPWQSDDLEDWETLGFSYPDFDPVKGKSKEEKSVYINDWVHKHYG

“2-(1-(4-((1-((5-Hydroxy-4-oxo-4H-pyran-2-yl)methyl)-1H-1,2,3-triazol-5-yl)methoxy)-3-methylphenyl)ethylidene)hydrazinecarbothioamide [Compound 6x]”: the IC50 at mushroom tyrosinase came to 2.35 ± 0.021 µM; in assay [1], 159.2 ± 0.061 µM; in assay [2], 19.94 ± 0.081 µM.
The matching figures for “2-(3-((1-((5-Hydroxy-4-oxo-4H-pyran-2-yl)methyl)-1H-1,2,3-triazol-5-yl)methoxy)benzylidene)hydrazinecarbothioamide [Compound 6l]”: 5.45 ± 0.077 µM, 81.67 ± 0.073 µM and 40.23 ± 0.071 µM.
As for `NC(=S)NN=Cc1ccccc1OCc1cn(Cc2cc(=O)c(O)co2)nn1` [Compound 6a, (2-((1-((5-Hydroxy-4-oxo-4H-pyran-2-yl)methyl)-1H-1,2,3-triazol-4-yl)methoxy)benzylidene)hydrazinecarbothioamide], the IC50 in assay [1] amounted to 173.2 ± 0.058 µM; in assay [2] it was 43.89 ± 0.034 µM.
The matching figures for `NC(=S)NN=Cc1ccc(F)cc1OCc1cn(Cc2cc(=O)c(O)co2)nn1` [Compound 6b, 2-(4-Fluoro-2-((1-((5-hydroxy-4-oxo-4H-pyran-2-yl)methyl)-1H-1,2,3-triazol-4-yl)methoxy)benzylidene)hydrazinecarbothioamide]: 105.4 ± 0.115 µM and 63.1 ± 0.042 µM.
On to `NC(=S)NN=Cc1ccc(Cl)cc1OCc1cn(Cc2cc(=O)c(O)co2)nn1` [Compound 6c, 2-(4-Chloro-2-((1-((5-hydroxy-4-oxo-4H-pyran-2-yl)methyl)-1H-1,2,3-triazol-4-yl)methoxy)benzylidene)hydrazinecarbothioamide], for which the IC50 in assay [1] is 104.7 ± 0.088 µM; in assay [2], 72.03 ± 0.084 µM.
The matching figures for `NC(=S)NN=Cc1ccc(Br)cc1OCc1cn(Cc2cc(=O)c(O)co2)nn1` [Compound 6d, 2-(4-Bromo-2-((1-((5-hydroxy-4-oxo-4H-pyran-2-yl)methyl)-1H-1,2,3-triazol-4-yl)methoxy)benzylidene)hydrazinecarbothioamide]: 71.43 ± 0.036 µM and 91.1 ± 0.033 µM.
The matching figures for `COc1ccc(C=NNC(N)=S)c(OCc2cn(Cc3cc(=O)c(O)co3)nn2)c1` [Compound 6e, 2-(2-((1-((5-Hydroxy-4-oxo-4H-pyran-2-yl)methyl)-1H-1,2,3-triazol-4-yl)methoxy)-4-methoxybenzylidene)hydrazinecarbothioamide]: 87.47 ± 0.144 µM and 8.24 ± 0.048 µM.
On the same counts, the results for `Cc1ccc(C=NNC(N)=S)c(OCc2cn(Cc3cc(=O)c(O)co3)nn2)c1` [Compound 6f, 2-(2-((1-((5-Hydroxy-4-oxo-4H-pyran-2-yl)methyl)-1H-1,2,3-triazol-4-yl)methoxy)-4-methylbenzylidene)hydrazinecarbothioamide] are 99.6 ± 0.056 µM and 34.95 ± 0.061 µM.
Consider `NC(=S)NN=Cc1cc(Cl)ccc1OCc1cn(Cc2cc(=O)c(O)co2)nn1` [Compound 6g, 2-(5-Chloro-2-((1-((5-hydroxy-4-oxo-4H-pyran-2-yl)methyl)-1H-1,2,3-triazol-4-yl)methoxy)benzylidene)hydrazinecarbothioamide], for which the IC50 was determined as 133.8 ± 0.048 µM in assay [1] and 52.65 ± 0.109 µM in assay [2].
On the same counts, the results for `NC(=S)NN=Cc1cc(Br)ccc1OCc1cn(Cc2cc(=O)c(O)co2)nn1` [Compound 6h, 2-(5-Bromo-2-((1-((5-hydroxy-4-oxo-4H-pyran-2-yl)methyl)-1H-1,2,3-triazol-4-yl)methoxy)benzylidene)hydrazinecarbothioamide] are 118.4 ± 0.049 µM and 68.49 ± 0.091 µM.
The matching figures for `Cc1ccc(OCc2cn(Cc3cc(=O)c(O)co3)nn2)c(C=NNC(N)=S)c1` [Compound 6i, 2-(2-((1-((5-Hydroxy-4-oxo-4H-pyran-2-yl)methyl)-1H-1,2,3-triazol-4-yl)methoxy)-5-methylbenzylidene)hydrazinecarbothioamide]: 248.1 ± 0.041 µM and 61.66 ± 0.091 µM.
Regarding `CCOc1cccc(C=NNC(N)=S)c1OCc1cn(Cc2cc(=O)c(O)co2)nn1` [Compound 6j, 2-(3-Ethoxy-2-((1-((5-hydroxy-4-oxo-4H-pyran-2-yl)methyl)-1H-1,2,3-triazol-4-yl)methoxy)benzylidene)hydrazinecarbothioamide], the IC50 in assay [1] was determined as 25.6 ± 0.031 µM; in assay [2], 6.78 ± 0.082 µM.
The matching figures for `CC(C)(C)c1cccc(C=NNC(N)=S)c1OCc1cn(Cc2cc(=O)c(O)co2)nn1` [Compound 6k, 2-(3-(Tert-butyl)-2-((1-((5-hydroxy-4-oxo-4H-pyran-2-yl)methyl)-1H-1,2,3-triazol-4-yl)methoxy)benzylidene)hydrazinecarbothioamide]: 49.17 ± 0.077 µM and 9.31 ± 0.022 µM.
With `CC(=NNC(N)=S)c1ccccc1OCc1cn(Cc2cc(=O)c(O)co2)nn1` [Compound 6p, 2-(1-(2-((1-((5-Hydroxy-4-oxo-4H-pyran-2-yl)methyl)-1H-1,2,3-triazol-4-yl)methoxy)phenyl)ethylidene)hydrazinecarbothioamide], the IC50 in assay [1] is 10.53 ± 0.014 µM; in assay [2] it was 3.19 ± 0.034 µM.
The matching figures for `CC(=NNC(N)=S)c1ccc(F)cc1OCc1cn(Cc2cc(=O)c(O)co2)nn1` [Compound 6q, 2-(1-(4-Fluoro-2-((1-((5-hydroxy-4-oxo-4H-pyran-2-yl)methyl)-1H-1,2,3-triazol-4-yl)methoxy)phenyl)ethylidene)hydrazinecarbothioamide]: 47.05 ± 0.042 µM and 6.61 ± 0.054 µM.
Turning to `CC(=NNC(N)=S)c1ccc(Cl)cc1OCc1cn(Cc2cc(=O)c(O)co2)nn1` [Compound 6r, 2-(1-(4-Chloro-2-((1-((5-hydroxy-4-oxo-4H-pyran-2-yl)methyl)-1H-1,2,3-triazol-4-yl)methoxy)phenyl)ethylidene)hydrazinecarbothioamide], the IC50 in assay [1] worked out at 53.54 ± 0.088 µM; in assay [2], 4.49 ± 0.103 µM.
The matching figures for `CC(=NNC(N)=S)c1ccc(Br)cc1OCc1cn(Cc2cc(=O)c(O)co2)nn1` [Compound 6s, 2-(1-(4-Bromo-2-((1-((5-hydroxy-4-oxo-4H-pyran-2-yl)methyl)-1H-1,2,3-triazol-4-yl)methoxy)phenyl)ethylidene)hydrazinecarbothioamide]: 105.8 ± 0.092 µM and 11.29 ± 0.033 µM.
The matching figures for `COc1ccc(C(C)=NNC(N)=S)c(OCc2cn(Cc3cc(=O)c(O)co3)nn2)c1` [Compound 6t, 2-(1-(2-((1-((5-Hydroxy-4-oxo-4H-pyran-2-yl)methyl)-1H-1,2,3-triazol-4-yl)methoxy)-4-methoxyphenyl)ethylidene)hydrazinecarbothioamide]: 86.3 ± 0.058 µM and 3.91 ± 0.064 µM.
The matching figures for `CC(=NNC(N)=S)c1ccc(C)cc1OCc1cn(Cc2cc(=O)c(O)co2)nn1` [Compound 6u, 2-(1-(2-((1-((5-Hydroxy-4-oxo-4H-pyran-2-yl)methyl)-1H-1,2,3-triazol-4-yl)methoxy)-4-methylphenyl)ethylidene)hydrazinecarbothioamide]: 55.7 ± 0.154 µM and 5.27 ± 0.078 µM.
`CC(=NNC(N)=S)c1cccc(OCc2cn(Cc3cc(=O)c(O)co3)nn2)c1` [Compound 6v, 2-(1-(3-((1-((5-Hydroxy-4-oxo-4H-pyran-2-yl)methyl)-1H-1,2,3-triazol-4-yl)methoxy)phenyl)ethylidene)hydrazinecarbothioamide]: the IC50 came to 16.27 ± 0.093 µM in assay [1] and 3.2 ± 0.091 µM in assay [2].
On to `O=C1O[C@H]([C@@H](O)CO)C(O)=C1O` [Vitamin C, Ascorbic acid, reference compound], for which the IC50 in assay [1] turned out to be 27.25 ± 0.015 µM; in assay [2], 55.48 ± 0.04 µM.

The record behind these values is PMC11983575, “Study on the synthesis and biological activity of kojic acid triazol thiosemicarbazide Schiff base derivatives” (Journal of Enzyme Inhibition and Medicinal Chemistry, 2025).
